Test results reported in BindingDB's records for doi:10.1021/acs.biochem.5b00106 (Louis Stokes Cleveland Veterans Affairs Medical Center, 2015).

Tests used:
[1] = target: VIM-24 (Klebsiella pneumoniae, UniProt E0AFT6); assay: Direct Competition Assay
Description: (§1) The Ki for each inhibitor was determined by direct competition assays under steady-state conditions. The initial velocity was measured in the presence of a constant concentration of enzyme (3 nM for VIM-2 and 4 nM for VIM-24) with increasing concentrations of inhibitor (5−60 μM) against a fixed concentration (5KM) of the indicator substrate, NCF, as previously described. The reactionswere started by addition of VIM-2 or VIM-24 to substrate or to mixtures of substrate and inhibitor.

[2] = target: Metallo-beta-lactamase VIM-2 (Klebsiella pneumoniae, UniProt Q3Y6Q3); assay: Direct Competition Assay
Description: as §1

**Q.** Which Ki [1] does the source give for O=C(O)[C@H]1CS[C@@H]2CS[C@@H](CS)N12 [D-CS319] here?
**A.** 11 µM

**Q.** And the Ki [2]?
**A.** 5.4 µM

**Q.** What does the source list for CC1(C)S[C@@H]2CS[C@@H](CS)N2[C@H]1C(=O)O [D-VC26]?
**A.** Ki [1]: 12 µM; Ki [2]: 14 µM

**Q.** With O=C(O)[C@@H]1CS[C@H]2CS[C@H](CS)N21 [L-CS319] as the compound, how does the Ki [1] read?
**A.** 6 µM

**Q.** And the Ki [2]?
**A.** 3.7 µM

**Q.** Which results are given for CC1(C)S[C@H]2CS[C@H](CS)N2[C@@H]1C(=O)O [L-VC26]?
**A.** Ki [1]: 4.9 µM; Ki [2]: 3.8 µM
